Test results published in patent US5837852A, “Capped nucleic acid oligomers that inhibit cap-dependent transcription of the influenza virus endonuclease” (priority 1993, dated 1998).
“Also recorded” adds a separate entry of the source. {m7Gppp} = cap: 7-methylguanosine joined 5'-5' by triphosphate; m = 2'-O-methyl; r = 2'-OH (RNA); {P} = phosphate

What was measured:
viral cores = conditions: glycerol gradients, reference 3; cited from earlier work
[1] = tested on: influenza virus endonuclease (viral polymerase in viral cores); assay: Viral endonuclease cleavage reaction of capped RNA substrates with viral cores; format: biochemical, Influenza A/PR/8 virus (H1N1); conditions: for endonucleolytic cleavage by viral cores (in words): absence of nucleotide triphosphates; for dephosphorylation of the 3' phosphate by the viral polymerase (in words): 3'-phosphate terminated fragments with viral cores
[2] = tested on: viral polymerase (viral cores); assay: Elongation (priming of transcription) of capped RNA fragments by viral cores with NTPs; format: biochemical, Influenza A/PR/8 virus (H1N1); conditions: with NTPs (ATP, CTP, GTP)

Row | Substance | endonucleolytic cleavage by viral cores (in words) [1] | elongation / priming of transcription by viral cores (in words) [2] | other results
1 | m^7 GpppGm |  |  | co-sedimentation with viral cores (viral cores): did not
2 | m^7 GpppGmAAUACU | neither cleaved | nor were they able to prime transcription | 
3 | m^7 GpppGmAAUACUC | neither cleaved | nor were they able to prime transcription | 
4 | m^7 GpppGmAAUACUCA |  |  | elongation / priming of transcription by viral cores (in words) ([2]; listed as A9-OH): inefficiently elongated; also recorded: appeared to promote an abortive elongation product or primed transcription very inefficiently
5 | m^7 GpppGmAAUACUCAA (GAAUACUCAA; sugars from the 5' end m1 r9, 5' {m7Gppp}, backbone not given here) [ID; NO] |  | directly primed elongation | 
6 | m^7 GpppGmAAUACUCAAG-OH (GAAUACUCAAG; sugars from the 5' end m1 r10, 5' {m7Gppp}, backbone not given here) [ID; NO; 5, capped 11-nucleotide cleavage product] | did not result in further cleavage |  | elongation / priming of transcription by viral cores (in words) ([2]; listed as G11-OH): could function as a primer for viral transcription; also recorded: able to prime with an efficiency similar to that obtained with the full-length substrate
7 | m^7 GpppGmAAUACUCAAGC (GAAUACUCAAGC; sugars from the 5' end m1 r11, 5' {m7Gppp}, backbone not given here) [ID; NO] | a minor amount of secondary cleavage to a putative A9-OH fragment occurred | appeared to prime transcription without cleavage | 
8 | m^7 GpppGmAAUACUCAAGCUp (GAAUACUCAAGCU; sugars from the 5' end m1 r12, 5' {m7Gppp}, 3' {P}, backbone not given here) [ID; NO] | cleaved in the absence of ribonucleotides to an 11 base primer | normal elongation is observed | 
9 | m^7 GpppGmAAUACUCAAGCp (GAAUACUCAAGC; sugars from the 5' end m1 r11, 5' {m7Gppp}, 3' {P}, backbone not given here) [ID; NO] | little cleavage of the C12-P fragment to the G11-OH fragment occurred | A small amount of elongation was observed | dephosphorylation of the 3' phosphate by the viral polymerase (in words) [1]: little if any dephosphorylation
10 | m^7 GpppGmAAUACUCAAGGp | cleavage to an 11-base primer resulted |  | 
11 | m^7 GpppGmAAUACUCAAGp (GAAUACUCAAG; sugars from the 5' end m1 r10, 5' {m7Gppp}, 3' {P}, backbone not given here) [ID; NO] | A minor amount of G11-P fragment was cleaved to the A9-OH fragment | little elongation | dephosphorylation of the 3' phosphate by the viral polymerase (in words) [1]: essentially no cleavage of the 3' phosphate; also recorded: little if any dephosphorylation; dephosphorylation of the 3' phosphate by the viral polymerase (in words) ([1]; listed as G11-p): not converted to the G11-OH fragment; elongation / priming of transcription by viral cores (in words) ([2]; listed as G11-p): unable to efficiently prime transcription
12 | m^7 GpppGmAAUACUCAAp (GAAUACUCAA; sugars from the 5' end m1 r9, 5' {m7Gppp}, 3' {P}, backbone not given here) [ID; NO] |  | little elongation | dephosphorylation of the 3' phosphate by the viral polymerase (in words) [1]: essentially no cleavage of the 3' phosphate; also recorded: little if any dephosphorylation
13 | m^7 GpppGmUUUUUAp |  |  | co-sedimentation with viral cores (viral cores): co-sedimented efficiently
14 | m^7 GpppGmUp |  |  | co-sedimentation with viral cores (viral cores): did not
